19 compounds from patent publication US20110166121A1 (LG LIFE SCIENCES LTD., priority 2008, published 2011) can be followed below.

The target of one experiment is T1, Human P2Y12 receptor (Homo sapiens, UniProt Q9H244).
T1 construct: expressed in transfected cells; host or cells: HEK cells
As to the kind of experiment: Human P2Y12 receptor cell membrane binding assay with [3H] 2-Mes-ADP. The conditions noted are these: 1 nM [3H] 2-Mes-ADP, membranes of HEK cells expressing P2Y12 receptor; read-out: Binding activity (IC50). The method in brief: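 Membranes from HEK cells expressing human P2Y12 were incubated with compound and 1 nM [3H]2-MeS-ADP for 1 h at room temperature. Bound radioactivity was collected by GF/B filtration.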

The test system of experiment [1] is Human platelet aggregation caused by ADP. In words: Inhibition of ADP-induced platelet aggregation (Mimic-human PRP). It is filed as cell-based. The conditions noted are these: 20 μM ADP, human platelet concentrate diluted with PPP, absorption at 595 nm. In outline:
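Human PRP diluted with PPP to 3–4×10^8 platelets/mL was preincubated 20 min at room temperature with compound (0.01–30 μM, DMSO), then stimulated with 20 μM ADP. Aggregation read as A595 increase at 3 min versus 0 and 20 μM ADP controls; Ki from sigmoidal non-linear regression.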

For orientation: IC50 means the point on the concentration scale where inhibition reaches its midpoint. A word on the Ki: it is a dissociation constant, usually derived from enzyme kinetics or from competition with a known ligand. A higher Ki goes with lower affinity.

T1 sequence (Q9H244 whole entry): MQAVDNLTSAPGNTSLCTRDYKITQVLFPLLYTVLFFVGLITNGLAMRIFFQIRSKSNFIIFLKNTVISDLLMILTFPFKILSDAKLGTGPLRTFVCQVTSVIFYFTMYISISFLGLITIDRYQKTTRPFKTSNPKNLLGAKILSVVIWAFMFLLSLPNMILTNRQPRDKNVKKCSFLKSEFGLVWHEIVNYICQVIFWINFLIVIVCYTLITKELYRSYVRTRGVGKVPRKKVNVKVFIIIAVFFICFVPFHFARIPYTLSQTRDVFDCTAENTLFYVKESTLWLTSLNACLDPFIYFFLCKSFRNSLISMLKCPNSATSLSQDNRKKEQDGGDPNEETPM

Consider `CCCc1cc2c(N3CCn4c(nnc4C(F)(F)F)C3)nc(-c3nnc(N)o3)nc2s1` [Example 4-39, 5-[6-Propyl-4-(3-trifluoromethyl-5,6-dihydro-8H-[1,2,4]triazolo[4,3-a]pyrazin-7-yl)thieno[2,3-d]pyrimidin-2-yl]-[1,3,4]oxadiazol-2-ylamine], for which the IC50 on Human P2Y12 receptor came to 100 nM. In experiment [1], this compound displayed a Ki of 160 nM.

For `CCCc1cc2c(N3CCn4c(nnc4C(F)(F)F)C3)nc(SCc3ccccc3)nc2s1` [Example 3-51, 7-(2-Benzylsulfanyl-6-propyl-thieno[2,3-d]pyrimidin-4-yl)-3-trifluoromethyl-5,6,7,8-tetrahydro-[1,2,4]triazolo[4,3-a]pyrazine], the IC50 on Human P2Y12 receptor was 700 nM. Further, the affinity in experiment [1] corresponds to a Ki of 1170 nM.

As for `CCCc1cc2c(N3CCn4c(nnc4C(F)(F)F)C3)nc(-c3nc(CCOC)no3)nc2s1` [Example 4-29, 7-{2-[3-(2-Methoxy-ethyl)-[1,2,4]oxadiazol-5-yl]-6-propyl-thieno[2,3-d]pyrimidin-4-yl}-3-trifluoromethyl-5,6,7,8-tetrahydro-[1,2,4]triazolo[4,3-a]pyrazine], the IC50 on Human P2Y12 receptor amounted to 330 nM. Moreover, the Ki in experiment [1] is 480 nM.

For the compound `CCCc1cc2c(N3CCn4c(nnc4C(F)(F)F)C3)nc(-c3nc(CC(=O)O)cs3)nc2s1` [Example 4-52, {2-[6-Propyl-4-(3-trifluoromethyl-5,6-dihydro-8H-[1,2,4]triazolo[4,3-a]pyrazin-7-yl)thieno[2,3-d]pyrimidin-2-yl]thiazol-4-yl}acetic acid], the IC50 at Human P2Y12 receptor amounted to 14 nM. This compound also yielded a Ki in experiment [1] of 38 nM.

As for `CCCc1cc2c(N3CCn4c(nnc4C(F)(F)F)C3)nc(N3CCC(=O)C3)nc2s1` [Example 1-18, 1-[6-Propyl-4-(3-trifluoromethyl-5,6-dihydro-8H-[1,2,4]triazolo[4,3-a]pyrazin-7-yl)-thieno[2,3-d]pyrimidin-2-yl]-pyrrolidin-3-one], the IC50 on Human P2Y12 receptor was 54 nM. The compound also returned a Ki in experiment [1] of 34 nM.

Regarding `CCCc1cc2c(N3CCn4c(nnc4C(F)(F)C(F)(F)F)C3)nc(N3CCNCC3)nc2s1` [Example 6-5, 3-Pentafluoroethyl-7-(2-piperazin-1-yl-6-propyl-thieno[2,3-d]pyrimidin-4-yl)-5,6,7,8-tetrahydro-[1,2,4]triazolo[4,3-a]pyrazine], on Human P2Y12 receptor, the IC50 is 266 nM. In experiment [1], this compound showed a Ki of 940 nM.

Regarding `CCCc1cc2c(N3CCn4c(nnc4C(F)(F)F)C3)nc(N3CC[C@H](N)C3)nc2s1` [Example 1-14, (S)-1-[6-Propyl-4-(3-trifluoromethyl-5,6-dihydro-8H-[1,2,4]triazolo[4,3-a]pyrazin-7-yl)-thieno[2,3-d]pyrimidin-2-yl]-pyrrolidin-3-ylamine], at Human P2Y12 receptor, the IC50 amounted to 60 nM. The same compound returned a Ki in experiment [1] of 34 nM.

Consider `CCCc1cc2c(N3CCn4c(nnc4C(F)(F)F)C3)nc(OCCNCC(=O)O)nc2s1` [Example 3-55, {2-[6-Propyl-4-(3-trifluoromethyl-5,6-dihydro-8H-[1,2,4]triazolo[4,3-a]pyrazin-7-yl)-thieno[2,3-d]pyrimidin-2-yloxy]-ethylamino}-acetic acid], for which, on Human P2Y12 receptor, the IC50 amounted to 150 nM. Further, in experiment [1], the Ki is 25 nM.

Take `CCCc1cc2c(N3CCn4c(nnc4C(F)(F)F)C3)nc(N3CC[C@H](NC(=O)CCN)C3)nc2s1` [Example 1-110, 3-Amino-N-{(S)-1-[6-propyl-4-(3-trifluoromethyl-5,6-dihydro-8H-[1,2,4]triazolo[4,3-a]pyrazin-7-yl)-thieno[2,3-d]pyrimidin-2-yl]-pyrrolidin-3-yl}-propionamide]: the IC50 at Human P2Y12 receptor was 670 nM. This compound yielded a Ki in experiment [1] of 60 nM.

For `CCCc1cc2c(N3CCn4c(nnc4C(F)(F)F)C3)nc(N3CCc4ccccc43)nc2s1` [Example 1-71, 7-[2-(2,3-Dihydro-indol-1-yl)-6-propyl-thieno[2,3-d]pyrimidin-4-yl]-3-trifluoromethyl-5,6,7,8-tetrahydro-[1,2,4]triazolo[4,3-a]pyrazine], the IC50 on Human P2Y12 receptor came out at 526 nM. Besides, the Ki in experiment [1] is above 4000 nM.

As to `CCCc1cc2c(N3CCn4c(C)nnc4C3)nc(N3CCNC(=O)C3)nc2s1` [Example 6-14, 4-[4-(3-Methyl-5,6-dihydro-8H-[1,2,4]triazolo[4,3-a]pyrazin-7-yl)-6-propyl-thieno[2,3-d]pyrimidin-2-yl]-piperazin-2-one], at Human P2Y12 receptor, the IC50 was 322 nM. In experiment [1], the affinity, expressed as Ki, was 260 nM.

For the compound `CCCc1cc2c(N3CCn4c(nnc4C(F)(F)F)C3)nc(N3CCNCC3)nc2s1` [Example 1-4, 7-(2-piperazin-1-yl-6-propyl-thieno[2,3-d]pyrimidin-4-yl)-3-trifluoromethyl-5,6,7,8-tetrahydro-[1,2,4]triazolo[4,3-a]pyrazine], the IC50 at Human P2Y12 receptor is 64 nM. Moreover, in experiment [1], the affinity corresponds to a Ki of 300 nM.

Regarding `CCCc1cc2c(N3CCn4c(nnc4C(F)(F)F)C3)nc(N3CCN(C)CC3)nc2s1` [Example 1-3, 7-[2-(4-Methyl-piperazin-1-yl)-6-propyl-thieno[2,3-d]pyrimidin-4-yl]-3-trifluoromethyl-5,6,7,8-tetrahydro-[1,2,4]triazolo[4,3-a]pyrazine], the IC50 at Human P2Y12 receptor is 92 nM. In experiment [1], the Ki came out at 164 nM.

With `CCCc1cc2c(N3CCn4c(nnc4C(F)(F)F)C3)nc(OCCOC)nc2s1` [Example 3-4, 7-[2-(2-Methoxy-ethoxy)-6-propyl-thieno[2,3-d]pyrimidin-4-yl]-3-trifluoromethyl-5,6,7,8-tetrahydro-[1,2,4]triazolo[4,3-a]pyrazine], the IC50 on Human P2Y12 receptor worked out at 170 nM. This compound also showed a Ki in experiment [1] of 230 nM.

Regarding `CCc1cc2c(N3CCn4c(nnc4C(F)(F)F)C3)nc(N(CCO)CCO)nc2s1` [Example 2-6, 2-[[6-Ethyl-4-(3-trifluoromethyl-5,6-dihydro-8H-[1,2,4]triazolo[4,3-a]pyrazin-7-yl)-thieno[2,3-d]pyrimidin-2-yl]-(2-hydroxy-ethyl)-amino]-ethanol], the IC50 at Human P2Y12 receptor was 835 nM. The compound also returned a Ki in experiment [1] of 715 nM.

As to `CCCc1nc2c(N3CCn4c(nnc4C(F)(F)F)C3)nc(N3CCC[C@H](C(=O)OCC)C3)nc2s1` [Example 5-6, (S)-1-[2-Propyl-7-(3-trifluoromethyl-5,6-dihydro-8H-[1,2,4]triazolo[4,3-a]pyrazin-7-yl)-thiazolo[5,4-d]pyrimidin-5-yl]-piperidine-3-carboxylic acid ethyl ester], the half-inhibitory concentration (IC50) at Human P2Y12 receptor came out at 630 nM. The compound also had a Ki in experiment [1] above 4000 nM.

On to `CCCc1cc2c(N3CCn4c(nnc4C(F)(F)F)C3)nc(N3CC[C@@H](O)C3)nc2s1` [Example 1-17, (R)-1-[6-Propyl-4-(3-trifluoromethyl-5,6-dihydro-8H-[1,2,4]triazolo[4,3-a]pyrazin-7-yl)-thieno[2,3-d]pyrimidin-2-yl]-pyrrolidin-3-ol], for which the IC50 on Human P2Y12 receptor is 41 nM. This compound also yielded an inhibition constant Ki in experiment [1] of 80 nM.

As to `CCCc1cc2c(N3CCn4c(nnc4C(F)(F)F)C3)nc(N3CCC(N(C)C)C3)nc2s1` (centres unmarked) [Example 1-97, Dimethyl-{1-[6-propyl-4-(3-trifluoromethyl-5,6-dihydro-8H-[1,2,4]triazolo[4,3-a]pyrazin-7-yl)-thieno[2,3-d]pyrimidin-2-yl]-pyrrolidin-3-yl}-amine], at Human P2Y12 receptor, the half-inhibitory concentration (IC50) is 140 nM. The compound further yielded a Ki in experiment [1] of 13 nM.

As for `CCCc1cc2c(N3CCn4c(nnc4C(F)(F)F)C3)nc(OCC(=O)O)nc2s1` [Example 3-9, [6-Propyl-4-(3-trifluoromethyl-5,6-dihydro-8H-[1,2,4]triazolo[4,3-a]pyrazin-7-yl)-thieno[2,3-d]pyrimidin-2-yloxy]-acetic acid], the IC50 at Human P2Y12 receptor was 826 nM. This compound also displayed a Ki in experiment [1] of 3700 nM.
